# Assay results taken from patent US8466107B2, “Fibrin-binding peptides and conjugates thereof” (Bracco Imaging SpA, priority 2006, dated 2013).
# Bridge positions count the residues as written; N and C are the ends. Square brackets hold non-standard residues; d marks the D form. Peptide text beside a SMILES is read from it. * marks the point of attachment. ξ: configuration not given here. 5FAM = O=C1OC2(c3ccc(O)cc3Oc3cc(O)ccc32)c2ccc(C(=O)*)cc21; Phe(3,4-F2) = N[C@@H](Cc1ccc(F)c(F)c1)C(=O)O; ξTetrahydrofuran2carbonyl = O=C(C1CCCO1)*; Cha = N[C@@H](CC1CCCCC1)C(=O)O; AEEA = NCCOCCOCC(=O)O
# Biological target: DDE (fibrin-derived polypeptide) (Homo sapiens, UniProt P02671+P02675+P02679)
# Experiment: Direct binding fluorescence polarization (FP) assay using 5-carboxyfluorescein labeled peptides
# Conditions: 20 nM CF5-labeled peptide, serial dilutions of DDE, anisotropy read at 485 nm; read-out: KD (μM) Direct Binding (n = 2)
# Protocol: Assay of Fibrin Binding Peptides by Direct Binding Fluorescence Polarization (FP) Procedure using 5-Carboxyfluoresein Labeled Peptides
# Protocol • 1. Prepare 1 mL of 40 nM solution of 5-carboxyfluorescein-labeled peptide in HEPES dilution buffer (HDB) with 0.01% Tween. • HDB (10 mM HEPES, 150 mM […], 2 mM CaCl2) • 2. Dilute the 40 nM solution to obtain 1 ml of a 20 nM solution of the test 5-carboxyfluorescein-labeled peptide. • 3. Prepare a solution of DDE at a concentration that will be approximately 5-10 fold greater than the expected KD. For the described assay an 8 μM concentration of DDE was prepared. • 4. Mix equal volumes of the DDE solution with the 40 nM peptide solution. • 5. Prepare serial dilutions of DDE in a solution consisting of the binding buffer with 0.01% Tween20 and 20 nM of the 5-carboxyfluorescein-labeled peptide. • 6. Make dilutions as shown in the following table in a Labsystems 384-well microplate and mix by repeated aspiration and dispensing of the solution into the wells. • 7. Centrifuge the plate at 2000 RPM for 5 minutes to remove air pockets in the wells. • 8. Read in Tecan Polarion Plate Reader at 485 nm to obtain the anisotropy value.
# The anisotropy (in mP—millipolarization units) vs the logarithm of the concentration (micromoles/liter) of the receptor concentration is graphed. The dissociation constant is obtained at the midpoint of the curve whose extrema are Afree and Abound where Afree is the anisotropy of the free peptide and Abound is the anisotropy of the fully bound peptide. The theory, methods of operation and mathematical analysis is described in, for example, the following reference: Fluorescence Polarization Technical Resource Guide Technical Resource Guide 4th Edn. Invitrogen Corporation•501 Charmany Drive•Madison, Wis. 53719 USA. Particularly, the mathematical analysis of the data and obtaining binding constants is described in Chapter 8: Analysis of FP Binding Data pp 8-2-8-7.
# DDE (fibrin-derived polypeptide), sequence (P02671 124-216): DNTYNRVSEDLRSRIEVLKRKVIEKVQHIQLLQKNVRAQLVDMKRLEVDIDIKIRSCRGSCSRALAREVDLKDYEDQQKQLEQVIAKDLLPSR
# DDE (fibrin-derived polypeptide), sequence (P02675 164-491): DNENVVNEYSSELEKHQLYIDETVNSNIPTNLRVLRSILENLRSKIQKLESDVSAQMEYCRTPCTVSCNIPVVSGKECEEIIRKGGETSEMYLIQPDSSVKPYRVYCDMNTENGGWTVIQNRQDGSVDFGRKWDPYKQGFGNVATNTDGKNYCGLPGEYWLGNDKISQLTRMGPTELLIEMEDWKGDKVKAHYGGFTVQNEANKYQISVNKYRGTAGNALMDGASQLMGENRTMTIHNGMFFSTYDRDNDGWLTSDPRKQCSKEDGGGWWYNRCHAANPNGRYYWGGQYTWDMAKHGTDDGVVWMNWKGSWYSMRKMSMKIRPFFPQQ
# DDE (fibrin-derived polypeptide), sequence (P02679 114-432): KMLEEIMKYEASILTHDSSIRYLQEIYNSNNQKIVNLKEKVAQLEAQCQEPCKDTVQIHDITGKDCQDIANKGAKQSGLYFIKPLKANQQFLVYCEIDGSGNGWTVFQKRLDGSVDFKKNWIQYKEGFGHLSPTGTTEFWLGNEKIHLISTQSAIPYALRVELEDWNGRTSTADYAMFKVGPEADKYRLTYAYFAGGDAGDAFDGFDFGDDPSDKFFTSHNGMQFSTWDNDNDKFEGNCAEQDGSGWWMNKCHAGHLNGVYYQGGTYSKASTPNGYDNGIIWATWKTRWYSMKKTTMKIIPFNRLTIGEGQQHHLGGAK
# DDE (fibrin-derived polypeptide), sequence (P02671 36-97): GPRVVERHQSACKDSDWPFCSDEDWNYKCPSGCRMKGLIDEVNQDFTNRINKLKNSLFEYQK
# DDE (fibrin-derived polypeptide), sequence (P02675 45-152): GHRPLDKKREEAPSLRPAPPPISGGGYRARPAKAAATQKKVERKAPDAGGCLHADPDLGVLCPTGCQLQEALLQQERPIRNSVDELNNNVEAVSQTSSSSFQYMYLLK
# DDE (fibrin-derived polypeptide), sequence (P02679 27-88): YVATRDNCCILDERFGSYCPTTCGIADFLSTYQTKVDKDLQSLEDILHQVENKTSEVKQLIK
row,SMILES,Kd [µM]
1,"CC(=O)N[C@@H](Cc1c[nH]c2ccccc12)C(=O)N[C@@H](CCC(N)=O)C(=O)N1CCC[C@H]1C(=O)N[C@H]1CSSC[C@@H](C(=O)N[C@@H](Cc2c[nH]c3ccccc23)C(=O)N[C@@H](CC(=O)O)C(=O)N2CCC[C@H]2C(=O)NCC(=O)NCC(=O)NCC(=O)N[C@@H](CCCCNC(=O)c2ccc3c(c2)C(=O)OC32c3ccc(O)cc3Oc3cc(O)ccc32)C(N)=O)NC(=O)[C@H](CC2CCCCC2)NC(=O)[C@H]([C@@H](C)O)NC(=O)[C@H](Cc2c[nH]c3ccccc23)NC(=O)[C@H](CO)NC(=O)[C@H](CCC(=O)O)NC(=O)[C@H](Cc2c[nH]c3ccccc23)NC(=O)[C@@H]2CCCN2C1=O [Seq018-CF5, Ac-WQPC*PWESWT-Cha-C*WDPGGGK(CF5)-NH2] (Ac-WQPCPWESWT[Cha]CWDPGGGK(5FAM)-NH2; disulfide 4-12)",0.2
2,CC(=O)NCC(=O)N1CCC[C@H]1C(=O)N1CCC[C@H]1C(=O)NCC(=O)N[C@@H](Cc1c[nH]c2ccccc12)C(=O)N[C@@H](CCC(N)=O)C(=O)N1CCC[C@H]1C(=O)N[C@H]1CSSC[C@@H](C(=O)N[C@@H](Cc2c[nH]c3ccccc23)C(=O)N[C@@H](CC(=O)O)C(=O)N2CCC[C@H]2C(=O)NCC(=O)NCC(=O)NCC(=O)N[C@@H](CCCCNC(=O)c2ccc3c(c2)C(=O)OC32c3ccc(O)cc3Oc3cc(O)ccc32)C(N)=O)NC(=O)[C@H](Cc2ccccc2)NC(=O)[C@H]([C@@H](C)O)NC(=O)[C@H](Cc2c[nH]c3ccccc23)NC(=O)[C@H](CO)NC(=O)[C@H](CCC(=O)O)NC(=O)[C@H](Cc2c[nH]c3ccccc23)NC(=O)[C@@H]2CCCN2C1=O [Seq014-CF5] (Ac-GPPGWQPCPWESWTFCWDPGGGK(5FAM)-NH2; disulfide 8-16),0.25
3,C[C@@H](O)[C@@H]1NC(=O)[C@H](Cc2c[nH]c3ccccc23)NC(=O)[C@H](CO)NC(=O)[C@H](CCC(=O)O)NC(=O)[C@H](Cc2c[nH]c3ccccc23)NC(=O)[C@@H]2CCCN2C(=O)[C@@H](NC(=O)[C@@H]2CCCN2C(=O)[C@H](CCC(N)=O)NC(=O)[C@H](Cc2c[nH]c3ccccc23)NC(=O)C2CCCO2)CSSC[C@@H](C(=O)N[C@@H](Cc2c[nH]c3ccccc23)C(=O)N[C@@H](CC(=O)O)C(=O)N2CCC[C@H]2C(=O)NCC(=O)NCC(=O)NCC(=O)N[C@@H](CCCCNC(=O)c2ccc3c(c2)C(=O)OC32c3ccc(O)cc3Oc3cc(O)ccc32)C(N)=O)NC(=O)[C@H](Cc2ccccc2)NC1=O (stereo partly drawn) [Seq028-CF5] (ξTetrahydrofuran2carbonyl-WQPCPWESWTFCWDPGGGK(5FAM)-NH2; disulfide 4-12),1.21
4,"CC(=O)N[C@@H](Cc1c[nH]c2ccccc12)C(=O)N[C@@H](CCC(N)=O)C(=O)N1CCC[C@H]1C(=O)N[C@H]1CSSC[C@@H](C(=O)N[C@@H](Cc2c[nH]c3ccccc23)C(=O)N[C@@H](CC(=O)O)C(=O)N2CCC[C@H]2C(=O)NCC(=O)NCC(=O)NCC(=O)N[C@@H](CCCCNC(=O)c2ccc3c(c2)C(=O)OC32c3ccc(O)cc3Oc3cc(O)ccc32)C(N)=O)NC(=O)[C@H](Cc2ccc(F)c(F)c2)NC(=O)[C@H]([C@@H](C)O)NC(=O)[C@H](Cc2c[nH]c3ccccc23)NC(=O)[C@H](CO)NC(=O)[C@H](CCC(=O)O)NC(=O)[C@H](Cc2c[nH]c3ccccc23)NC(=O)[C@@H]2CCCN2C1=O [Seq020-CF5, Ac-WQPC*PWESWT-F34fe-C*WDPGGGK(CF5)-NH2] (Ac-WQPCPWESWT[Phe(3,4-F2)]CWDPGGGK(5FAM)-NH2; disulfide 4-12)",0.7

# The next lines start with the values.
row,Kd [µM],SMILES
1,0.71,CC(=O)N[C@@H](CCCCN)C(=O)N[C@@H](CCCCN)C(=O)NCC(=O)N[C@@H](Cc1c[nH]c2ccccc12)C(=O)N[C@@H](CCC(N)=O)C(=O)N1CCC[C@H]1C(=O)N[C@H]1CSSC[C@@H](C(=O)N[C@@H](Cc2c[nH]c3ccccc23)C(=O)N[C@@H](CC(=O)O)C(=O)N2CCC[C@H]2C(=O)NCC(=O)NCC(=O)NCC(=O)N[C@@H](CCCCNC(=O)c2ccc3c(c2)C(=O)OC32c3ccc(O)cc3Oc3cc(O)ccc32)C(N)=O)NC(=O)[C@H](Cc2ccccc2)NC(=O)[C@H]([C@@H](C)O)NC(=O)[C@H](Cc2c[nH]c3ccccc23)NC(=O)[C@H](CO)NC(=O)[C@H](CCC(=O)O)NC(=O)[C@H](Cc2c[nH]c3ccccc23)NC(=O)[C@@H]2CCCN2C1=O [Seq025-CF5] (Ac-KKGWQPCPWESWTFCWDPGGGK(5FAM)-NH2; disulfide 7-15)
2,0.57,CC(=O)N[C@@H](CO)C(=O)NCC(=O)N[C@@H](CO)C(=O)NCC(=O)NCCOCCOCC(=O)N[C@@H](Cc1c[nH]c2ccccc12)C(=O)N[C@@H](CCC(N)=O)C(=O)N1CCC[C@H]1C(=O)N[C@H]1CSSC[C@@H](C(=O)N[C@@H](Cc2c[nH]c3ccccc23)C(=O)N[C@@H](CC(=O)O)C(=O)N2CCC[C@H]2C(=O)NCC(=O)NCC(=O)NCC(=O)N[C@@H](CCCCNC(=O)c2ccc3c(c2)C(=O)OC32c3ccc(O)cc3Oc3cc(O)ccc32)C(N)=O)NC(=O)[C@H](Cc2ccccc2)NC(=O)[C@H]([C@@H](C)O)NC(=O)[C@H](Cc2c[nH]c3ccccc23)NC(=O)[C@H](CO)NC(=O)[C@H](CCC(=O)O)NC(=O)[C@H](C)NC(=O)[C@@H]2CCCN2C1=O [Seq045-CF5] (Ac-SGSG[AEEA]WQPCPAESWTFCWDPGGGK(5FAM)-NH2; disulfide 9-17)
3,0.47,CC(=O)N[C@@H](CO)C(=O)NCC(=O)N[C@@H](CO)C(=O)NCC(=O)N[C@@H](CO)C(=O)NCC(=O)N[C@@H](CO)C(=O)NCC(=O)N[C@@H](Cc1c[nH]c2ccccc12)C(=O)N[C@@H](CCC(N)=O)C(=O)N1CCC[C@H]1C(=O)N[C@H]1CSSC[C@@H](C(=O)N[C@@H](Cc2c[nH]c3ccccc23)C(=O)N[C@@H](CC(=O)O)C(=O)N2CCC[C@H]2C(=O)NCC(=O)NCC(=O)NCC(=O)N[C@@H](CCCCNC(=O)c2ccc3c(c2)C(=O)OC32c3ccc(O)cc3Oc3cc(O)ccc32)C(N)=O)NC(=O)[C@H](Cc2ccccc2)NC(=O)[C@H]([C@@H](C)O)NC(=O)[C@H](Cc2c[nH]c3ccccc23)NC(=O)[C@H](CO)NC(=O)[C@H](CCC(=O)O)NC(=O)[C@H](Cc2c[nH]c3ccccc23)NC(=O)[C@@H]2CCCN2C1=O [Seq024-CF5] (Ac-SGSGSGSGWQPCPWESWTFCWDPGGGK(5FAM)-NH2; disulfide 12-20)
4,0.22,CC(=O)N[C@@H](CCCNC(=N)N)C(=O)N[C@@H](CCCNC(=N)N)C(=O)NCC(=O)NCC(=O)N[C@@H](Cc1c[nH]c2ccccc12)C(=O)N[C@@H](CCC(N)=O)C(=O)N1CCC[C@H]1C(=O)N[C@H]1CSSC[C@@H](C(=O)N[C@@H](Cc2c[nH]c3ccccc23)C(=O)N[C@@H](CC(=O)O)C(=O)N2CCC[C@H]2C(=O)NCC(=O)NCC(=O)NCC(=O)N[C@@H](CCCCNC(=O)c2ccc3c(c2)C(=O)OC32c3ccc(O)cc3Oc3cc(O)ccc32)C(N)=O)NC(=O)[C@H](Cc2ccccc2)NC(=O)[C@H]([C@@H](C)O)NC(=O)[C@H](Cc2c[nH]c3ccccc23)NC(=O)[C@H](CO)NC(=O)[C@H](CCC(=O)O)NC(=O)[C@H](C)NC(=O)[C@@H]2CCCN2C1=O [Seq046-CF5] (Ac-RRGGWQPCPAESWTFCWDPGGGK(5FAM)-NH2; disulfide 8-16)
5,0.24,CC(=O)NCC(=O)N[C@@H](Cc1c[nH]c2ccccc12)C(=O)N[C@@H](CCC(N)=O)C(=O)N1CCC[C@H]1C(=O)N[C@H]1CSSC[C@@H](C(=O)N[C@@H](Cc2c[nH]c3ccccc23)C(=O)N[C@@H](CC(=O)O)C(=O)N2CCC[C@H]2C(=O)NCC(=O)NCC(=O)NCC(=O)N[C@@H](CCCCNC(=O)c2ccc3c(c2)C(=O)OC32c3ccc(O)cc3Oc3cc(O)ccc32)C(N)=O)NC(=O)[C@H](Cc2ccccc2)NC(=O)[C@H]([C@@H](C)O)NC(=O)[C@H](Cc2c[nH]c3ccccc23)NC(=O)[C@H](CO)NC(=O)[C@H](CCC(=O)O)NC(=O)[C@H](C)NC(=O)[C@@H]2CCCN2C1=O [Seq039-CF5] (Ac-GWQPCPAESWTFCWDPGGGK(5FAM)-NH2; disulfide 5-13)
